Like-named read-outs stand apart in the source and are kept apart here.
What was measured:
[1] = test system: photoreceptors; assay: Rhodopsin mutant transgenic rat models of retinal degeneration; assay type: in vivo, Transgenic S334ter rats; conditions: i.p., S334ter line 3 and line 4
Procedure: The objective of this study was to determine the efficacy of various retinoids in preventing retinal damage or improving retinal survival in rhodopsin mutant transgenic rat models of retinal degeneration. The overall goal of the research was to investigate potential photoreceptor survival in mutant rhodopsin transgenic rats using RAR α, RAR β γ, and RXR retinoid agonists.
The experimental design was straightforward. A compound was injected daily to line 3 and every two days for line 4 animals (i.p.) for a given period and animals were sacrificed at the end by CO2 overdose followed immediately by vascular perfusion of mixed aldehydes. Two litters of rats were used:
1. Transgenic S334ter-3 rats. Line 3 bears a rhodopsin mutation S334ter. […] Injection of a compound will be given daily from PD 6 (post-delivery day 6) to PD 20.
2. Transgenic S334ter-4 rats. Line 4 bears a rhodopsin mutation S334ter. Animals of this line experience a 80% loss of photoreceptors by 60 days after birth. The ONL is reduced to one row of nuclei. Injection of a compound will be given every other day from PD 25 to PD 60.
For the line 3 animals, treatment started at PD 6 and the endpoint was PD 20. For the line 4, injection began at PD 25 and ended at PD60 when eyes were harvested. Eyes were embedded in an Epon/Araldite mixture for sectioning at 1 μm thickness along the vertical meridian. Protection of photoreceptors was be evaluated by counting the rows of nuclei in the outer nuclear layer.
The outcome was a measure of retinal outer layer thickness, and cytology over an 8 week period. Compounds included the retinoid agonists tazarotene (RAR β γ), AGN 195183 (RAR α) and AGN 194204 (RXR). […] This is a fairly harsh model and as such the modest improvement by tazarotene is quite significant.

[2] = Ocular disposition of tazarotene and tazarotenic acid after intravitreal and subconjunctival dosing; assay type: in vivo, albino rabbits
Procedure: General disposition of intraocular and subconjunctivally administered tazarotene and tazarotenic acid was assessed. Briefly, albino rabbits were dosed via intraocular injection with 1.25 μg of tazarotene or tazarotenic acid. Injection was made mid-vitreous. After dosing the vitreous, retina and aqueous humor concentrations of tazarotene and tazarotenic acid were determined at 0.5, 1, 2, 4, 8, 12 and 24 hours post dosing. […] Additionally, the tazarotenic acid concentrations asymptotically approach approximately 10 ng/mL.
Tazarotene was also dosed in the subconjunctival space. Three dosage forms were evaluated: A tazarotene aqueous suspension (1 mg), a tazarotene subconjunctival olive oil solution (1 mg), and an tazarotene poly (lactide-co-glycolide) microsphere suspension. After dosing, the vitreous, retina and aqueous humor concentrations of tazarotene and tazarotenic acid were determined at 2, 8, 24, 48, 96, 168 and 336 hours post dosing. It was observed that subconjunctival administration achieved significant levels of tazarotene and tazarotenic acid in the ocular tissues.
Briefly, albino rabbits were dosed via intraocular injection with 1.25 μg of tazarotene or tazarotenic acid. Injection was made mid-vitreous. After dosing the vitreous, retina and aqueous humor concentrations of tazarotene and tazarotenic acid were determined at 0.5, 1, 2, 4, 8, 12 and 24 hours post dosing. […]

[3] = Tissue-to-plasma distribution after daily topical 14C-tazarotene; assay type: in vivo; conditions: rat
Procedure: FIG. 11 is a graph illustrating tissue-to-plasma concentration ratios of after twenty-one days of daily topical application of 14C-tazarotene to the skin of rats.
(§1) Oral delivery of 1.1 mg and 6 mg multiple doses led to 28.9 ng/mL and 227 ng/ml peak levels with a 2.56 ng/mL trough. This corresponds to a maximum possible 4 ng/mL ocular level for the highest dose. FIG. 11 depicts the tissue distribution of tazarotenic acid. The eyes show a 2% tissue/plasma ration in the rat. It should be noted that tazarotenic acid is 99% protein bound and distribution is limited to unbound drug.

[4] = Protein binding of tazarotenic acid; assay type: in vitro ADME
[5] = Plasma concentrations after topical and oral dosing of tazarotene; assay type: in vivo, patients; conditions: for Cmax: human; for Cmax / TAZAROTENIC ACID Ctrough: plasma
Procedure: […] For the most part tazarotene is not observed in the plasma after topical or oral administration. Facile hydrolysis by pre-systemic metabolism rapidly generates the free acid. […] It is important to note that these are plasma concentrations and the eye plasma distribution ratio is 0.02. Over 90% of all patients in the phase 3 clinical trials had concentrations of the parent compound, tazarotene, <1 ng/mL with the highest being 6 ng/mL.
as §1

[6] = test system: PVR induced by human RPE cells; assay: PVR model with retinoid implants, Fastenberg scale; assay type: in vivo; conditions: at 28 days; 10% loaded PLA/PLGA implants, intravitreal
Excerpt: PLA and PLGA implants 1.5 mm in diameter and 3 mm in length were fabricated by extrusion of the polymer drug blend. Tazarotenic acid (the free acid of Tazarotene) Tazarotene and 13-cis-retinoic acid were loaded into the implants at 10% concentrations. Briefly, pigmented rabbits were vitrectomized followed by intravitreal injection of 500,000 human RPE cells. After injection of the RPE cells the retinoid implants were placed into the vitreous and anchored to the sclera with the suture used to close the sclerotomy.
The eyes were examined weekly for 4 weeks. Severity of PVR was graded based on the Fastenberg scale. At 4 weeks gross pathology and limited histopathology were conducted.

[7] = test system: traction retinal detachment (PVR); conditions: cited from earlier work
[8] = test system: PVR; conditions: orally administered, retrospective study; cited from earlier work
[9] = cited from earlier work
[10] = test system: RPE proliferation; conditions: biphasic, read-out: IC50, prevention of RPE proliferation in-vitro (biphasic), cited from earlier work
[11] = Five to ten μg in a silicone oil tamponade

CC1(C)CCC(C)(C)c2c1cc(C(=O)Nc1cc(F)c(C(=O)O)c(F)c1)c(O)c2Cl [AGN 195183]
protection of photoreceptors (outer nuclear layer) [1]: Tazarotene was the only compound to show efficacy

CC1(C)CCSc2ccc(C#Cc3ccc(C(=O)O)cn3)cc21 [Tazarotenic Acid, 4,4-dimethyl-6-[2′-(5″-carboxy-2″-pyridyl)-ethynyl]-thiochroman]
maximal vitreous concentration of tazarotenic acid (asymptote) ([2]; after intraocular injection of 1.25 μg tazarotene): approximately 10 ng/mL
half-life ([2]; albino, rabbit, vitreous, other: intraocular injection, mid-vitreous, 1.25 ug, midvitreous dosing of 1.25 μg tazarotenic acid, read-out: vitreous elimination half-life (converted)): 4.24 h
eyes tissue/plasma ratio ([3]; FIG. 11): 2%
Kp at 21 days ([3]; eye, topical, read-out: eye plasma distribution ratio): 0.02
protein bound [4]: 99%
maximum possible ocular level ([5]; highest oral dose (6 mg)): ≤ 4 ng/mL
Cmax ([5]; po, 1.1 mg/Day, Oral 1.1 mg/Day, read-out: TAZAROTENIC ACID Cmax): 28.9 ng/mL
Cmax ([5]; po, 3 mg/Day, Oral 3.0 mg/Day, read-out: TAZAROTENIC ACID Cmax): 81.6 ng/mL
Cmax ([5]; po, 6 mg/Day, Oral 6.0 mg/Day, read-out: TAZAROTENIC ACID Cmax): 227 ng/mL
Cmax ([5]; topical or ocular, 0.1 % gel, Topical Gel 0.1% 2% BSA, read-out: TAZAROTENIC ACID Cmax): 0.241 ng/mL
Cmax ([5]; topical or ocular, 0.1 % gel, Topical Gel 0.1% 7% BSA, read-out: TAZAROTENIC ACID Cmax): 0.83 ng/mL
Cmax ([5]; topical or ocular, 0.1 % gel, Topical Gel 0.1% 15% BSA, read-out: TAZAROTENIC ACID Cmax): 4.8 ng/mL
Cmax ([5]; topical or ocular, 0.1 % gel, Topical Gel 0.1% 20% BSA, read-out: TAZAROTENIC ACID Cmax): 12 ng/mL
Cmax ([5]; topical or ocular, 0.1 % gel, Topical Gel 0.1% Phase 3, in 90%, read-out: TAZAROTENIC ACID Cmax): < 1 ng/mL
Cmax ([5]; topical or ocular, range over topical studies, read-out: Tazarotenic acid plasma concentrations (Cmax) from topical administration): 0.25 to 12 ng/mL
TAZAROTENIC ACID Ctrough ([5]; Oral 6.0 mg/Day, listed as TAZAROTENIC ACID): Ctrough 2.56 ng/mL
TAZAROTENIC ACID Ctrough ([5]; Oral 6.0 mg/Day, listed as tazarotenic acid): 2.56 ng/mL
eyes progressed to traction retinal detachment [6]: 12%

CC1=C(/C=C/C(C)=C/C=C/C(C)=C\C(=O)O)C(C)(C)CCC1 [Isotretinoin, 13-cis-retinoic acid]
traction retinal detachment in animal model of PVR [7, 11]: effectively prevent traction retinal detachment
eyes progressed to traction retinal detachment [6]: 22%
effect on PVR and retinal attachment [8]: effective at decreasing PVR and increasing the rate of retinal attachment

CC(/C=C/[C@@H]1C[C@]1(C)c1ccc2c(c1)C(C)(C)CCC2(C)C)=C\C(=O)O [AGN 194204]
protection of photoreceptors (outer nuclear layer) [1]: Tazarotene was the only compound to show efficacy

CC1=C(/C=C/C(C)=C/C=C/C(C)=C/C(=O)O)C(C)(C)CCC1 [RA, All trans-retinoic acid]
ocular toxicity by histopathology and ophthalmoscopic examination ([9]; five to ten μg in silicone oil): no ocular toxicity
concentration well tolerated with no ERG changes ([9]; in vivo): up to 15 μg/mL
traction retinal detachment in animal model of PVR [7, 11]: effectively prevent traction retinal detachment
traction retinal detachment in animal model of PVR ([7]; Ten and 15 μg in 1-% hyaluronic acid and BSS): reduced traction retinal detachment
IC50 ([10]; first value): 0.01 nM
IC50 ([10]; second value): 17 nM

Source: patent publication US20110076318A1, “RETINOID-CONTAINING SUSTAINED RELEASE INTRAOCULAR IMPLANTS AND RELATED MATTERS” (Allergan, Inc., priority 2004, published 2011)
